Test results as given in patent publication EP1944022A1, “PHARMACEUTICAL COMPOSITIONS COMBINING […] ANTICONVULSANT AGENTS FOR THE TREATMENT OF CHRONIC AND ACUTE PAIN” (ESPINOZA ABDALA, Leopoldo de Jesús, priority 2005, dated 2007).

Tested on: nociceptive pain
Test: uric acid-induced knee joint inflammation and pain in rats, recovery of Functionality Ratio (AUC over 4 hours)
Assay type: in vivo, female Wistar rats
Conditions: rat
Procedure: An experimental preclinical study was performed that compares the analgesic effect of tramadol and gabapentin administered individually and in combination, using female Wistar rats weighting from 160 to 180 g, which were intraarticularly injected 0.05 ml uric acid suspended in mineral oil into knee joint of left hindleg under anesthesia in order to cause inflammation and pain. An electrode was connected at the plantar region of hindlegs. The rats were placed in a roller of 30 cm of diameter rotating at 4 rpm during two-minute periods. The time of contact between each electrode of the rats' hindlegs and the roller was registered. The data are expressed as Functionality Ratio (FR). […] At the same time the medicaments, alone or in combination, were administered, and the Functionality Ratio every 30 minutes for 4 hours was determined. […]
Doses used for the combination were 3.16, 5.62, 10.0 or 17.78, 31.62, 56.23, 100.0 mg/kg of tramadol and those used for gabapentin were 31.6, 56.2, 100.0, 177.8, 316.2 mg/kg. Thus, the possible synergistic interaction (a total of 24 combinations) was analyzed.
The synergism between gabapentin and tramadol was calculated with the synergistic interaction surface analysis and an isobolographic method (Tallarida et al., 1989). The area under the curve (AUC) was calculated for each of the combinations and for each of the components.

Row | Compound | total analgesic effect, area under the curve (AUC) (gabapentin alone 316.2 mg/kg, 4-hours observation period) | total analgesic effect, area under the curve (AUC) (in vivo)
1 | NCC1(CC(=O)O)CCCCC1 [Gabapentin] | 121.5 ± 30.3 area units | 
2 | COc1cccc(C2(O)CCCCC2CN(C)C)c1 (mixture of isomers) [tramadol, (±) cis-2-[(dimethylamino)methyl]-1-(3-metoxyphenyl) cyclohexanol] |  | 207.7 ± 24.7 area units
